Melting point data for one compound are collected here from patent US20060089340A1, “Novel steroids and steroid mimetics; method for their production; and use thereof” (priority 2003, published 2006).

By melting point is commonly meant the temperature of the solid-liquid transition.

The compound `COc1ccc2c(c1)CC[C@@H]1[C@@H]2CC[C@]2(C)[C@@H](O)C[C@@H](O)[C@]12F` registered a melting point of 188 to 191 °C.
